One assay deals with T1, BFXa (Bos taurus, UniProt P00743).
T1 construct: purchased Hyphen BioMed (France) BE1010/BE101K
Put plainly: Direct potency assay with BFXa/betrixaban mixture. The format is biochemical, bovine. Conditions: BFXa (1×)/betrixaban (1×) vs HFXa (1×)/betrixaban (1×), no andexanet.

For another assay, the target named is T2, bovine fXa (BFXa) (Bos taurus, UniProt P00743).
T2 construct: purchased Hyphen BioMed (France) BE1010/BE101K
Put plainly: Inhibition of bovine fXa by betrixaban. The format is biochemical. Conditions: in words.

T1 sequence (P00743 234-492 limits assumed): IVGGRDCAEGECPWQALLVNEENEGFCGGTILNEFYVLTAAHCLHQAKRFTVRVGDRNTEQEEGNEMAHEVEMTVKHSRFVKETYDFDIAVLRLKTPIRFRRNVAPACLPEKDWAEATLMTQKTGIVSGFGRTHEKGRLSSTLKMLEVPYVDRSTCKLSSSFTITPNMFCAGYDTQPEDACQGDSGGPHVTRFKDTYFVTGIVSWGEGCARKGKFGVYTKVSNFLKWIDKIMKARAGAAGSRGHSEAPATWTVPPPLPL
T1 sequence (P00743 41-180 partner limits assumed): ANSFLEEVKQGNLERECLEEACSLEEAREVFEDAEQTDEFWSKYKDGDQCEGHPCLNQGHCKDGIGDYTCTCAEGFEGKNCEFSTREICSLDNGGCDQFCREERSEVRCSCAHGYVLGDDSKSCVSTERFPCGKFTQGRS
T2 sequence (P00743 234-492 limits assumed): as the sequence (P00743 234-492 limits assumed) above
T2 sequence (P00743 41-180 partner limits assumed): as the sequence (P00743 41-180 partner limits assumed) above

Consider `COc1ccc(NC(=O)c2ccc(C(=N)N(C)C)cc2)c(C(=O)Nc2ccc(Cl)cn2)c1` [betrixaban], for which the “inhibition of BFXa activity (background in absence of andexanet)” value on BFXa is on record as “less inhibition of BFXa activity”. Moreover, the “potency of inhibition of bovine fXa compared with human fXa” value at bovine fXa (BFXa) was “less potent”.

Values taken from US20230265483A1, “METHODS FOR TESTING ANDEXANET POTENCY” (Alexion Pharmaceuticals, Inc., priority 2020, published 2023).
